Measurements published in the supplement of paper PMC5908809.

Experiments:
[1] = test system: NK-YS (IL-2 2.5 ng/mL); assay: drug sensitivity score (DSS) (DSS units); higher = more sensitive; extreme values may be limits of the assay; details: 72 h
[2] = test system: normal primary NK cells, pool 2 (3 donors) (IL-2 2.5 ng/mL); assay: as above; details: 72 h
[3] = test system: normal primary NK cells, pool 3 (3 donors) (IL-2 2.5 ng/mL); assay: as above; details: 72 h
[4] = test system: KAI3 (IL-2 2.5 ng/mL); assay: as above; details: 72 h
[5] = test system: YT (IL-2 2.5 ng/mL); assay: as above; details: 72 h
[6] = test system: NKL (IL-2 2.5 ng/mL); assay: as above; details: 72 h
[7] = test system: NK-92 (IL-2 2.5 ng/mL); assay: as above; details: 72 h
[8] = test system: SNK-6 (IL-2 2.5 ng/mL); assay: as above; details: 72 h
[9] = test system: IMC-1 (IL-2 20 ng/mL); assay: as above; details: 72 h
[10] = test system: DERL-7 (IL-2 2.5 ng/mL); assay: as above; details: 72 h
[11] = test system: KHYG-1 (IL-2 2.5 ng/mL); assay: as above; details: 72 h
[12] = test system: normal primary NK cells, pool 1 (3 donors) (IL-2 2.5 ng/mL); assay: as above; details: 72 h
[13] = test system: normal primary NK cells, pool 1 (3 donors), resting (IL-2 0 ng/mL); assay: as above; details: 72 h
[14] = test system: NK-YS (IL-2 2.5 ng/mL); assay: percent inhibition of viability; higher = more inhibition; details: 72 h
[15] = test system: normal primary NK cells, pool 2 (3 donors) (IL-2 2.5 ng/mL); assay: as above; details: 72 h
[16] = test system: normal primary NK cells, pool 3 (3 donors) (IL-2 2.5 ng/mL); assay: as above; details: 72 h
[17] = test system: KAI3 (IL-2 2.5 ng/mL); assay: as above; details: 72 h
[18] = test system: YT (IL-2 2.5 ng/mL); assay: as above; details: 72 h
[19] = test system: NKL (IL-2 2.5 ng/mL); assay: as above; details: 72 h
[20] = test system: NK-92 (IL-2 2.5 ng/mL); assay: as above; details: 72 h
[21] = test system: SNK-6 (IL-2 2.5 ng/mL); assay: as above; details: 72 h
[22] = test system: IMC-1 (IL-2 20 ng/mL); assay: as above; details: 72 h
[23] = test system: DERL-7 (IL-2 2.5 ng/mL); assay: as above; details: 72 h
[24] = test system: KHYG-1 (IL-2 2.5 ng/mL); assay: as above; details: 72 h
[25] = test system: normal primary NK cells, pool 1 (3 donors) (IL-2 2.5 ng/mL); assay: as above; details: 72 h
[26] = test system: normal primary NK cells, pool 1 (3 donors), resting (IL-2 0 ng/mL); assay: as above; details: 72 h
[27] = test system: normal NK cells expanded with K562-aAPC; assay: drug sensitivity score (DSS) (DSS units); higher = more sensitive; extreme values may be limits of the assay; details: 72 h; IL-2 2.5 ng/mL
Protocol: (§1)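 Drug sensitivity and resistance testing on K562-aAPC-expanded normal NK cells: 5 concentrations (10-fold steps over a 10,000-fold range), 72 h at 37 °C, viability by CellTiter-Glo normalised to DMSO and benzethonium chloride controls; DSS from the fitted curve.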

[28] = test system: normal NK cells expanded with K562-aAPC; assay: percent inhibition of viability; higher = more inhibition; details: 72 h, IL-2 2.5 ng/mL
Protocol: as §1

C[C@@H](C(=O)O)c1ccc(-c2ccccc2)c(F)c1 [Tarenflurbil] (max concentration tested 10000 nM)
Details	drug sensitivity score
[1]	0.07
[2]	0
[3]	0
[4]	1.72
[5]	0.47
[6]	5.13
[7]	2.36
[8]	0.04
[9]	0
[10]	0
[11]	0
[12]	0
[13]	0.07
[27]	0

percent inhibition of viability [%]
Details	1 nM	10 nM	100 nM	1000 nM	10000 nM
[14]	-4.2	-2.88	4.93	1.37	11.5
[15]	-7.01	3.47	9.98	6.83	1.08
[16]	-14.1	-0.87	-2.01	-2.07	2.43
[17]	-7.87	-7.47	3.52	11.2	23.6
[18]	-2.12	-10.1	2.14	4.49	14.9
[19]	-0.03	-4.97	19.8	21.7	16.2
[20]	-0.98	-4.75	-2.63	14.7	23.1
[21]	-1.12	-28.7	-23.7	-16.9	14.1
[22]	-1.05	0.62	-1.4	-6.55	2.74
[23]	4.46	2.02	-0.14	2.03	-3.24
[24]	-3.32	-5.74	0.55	-0.63	6.21
[25]	2	12.8	9.24	3.23	7.48
[26]	-0.07	18.2	4.52	11.8	8.75
[28]	-6.17	-4.88	-3.95	0.95	3.26
